From patent US10781224B2, “Bis(oxymethyl)phosphinic acid and biogenic metal salts thereof as regulators of plant growth and development” (priority 2016, dated 2020)

Test system: rice (Diamant variety)
Assay: Rice seed treatment with BHMPA salts: germinating power
Assay type: in vivo
Method in brief: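 Seeds (50 per Petri dish on two layers of filter paper) soaked 1 h in BHMPA or its Ca, Mg, Na, Co, Mn, Cu or Zn salts at 1·10^−6-1·10^−12%, with water controls. Germination energy read on day 4, germination on day 8 (wheat) or day 7 (rice, corn), as % means of four replicates. Germinating power taken as root and sprout length plus wet and dry mass per 100 seedlings.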

[1] = rice seed treatment, comparison with Melaphen (Table XXXIII), solution 1 · 10^−11%
[2] = rice seeds, solution concentration 1 · 10^−6%
[3] = rice seeds, solution concentration 1 · 10^−7%
[4] = rice seeds, solution concentration 1 · 10^−8%
[5] = rice seeds, solution concentration 1 · 10^−9%
[6] = rice seeds, solution concentration 1 · 10^−10%
[7] = rice seeds, solution concentration 1 · 10^−11%
[8] = rice seeds, solution concentration 1 · 10^−12%
[9] = rice, vs control, 1·10^−11% solution

O=P([O-])(CO)CO.[Na+] [Na-salt, Sodium BHMPA Salt] was tested, and the “optimum concentration for treating rice seeds before sowing” value (rice) was 1·10^−11%, the “Length, root” value [1] was 5.9 cm and the “Length, root, + % to control” value [1] was 23%. The “Length, sprout” value [1] was 3.4 cm, the “Length, sprout, + % to control” value [1] was 46% and the “Mass, dry, root” value [1] was 0.22 g/100 plantlings. For the same compound, the “Mass, dry, root, + % to control” value [1] was 5%, the “Mass, dry, sprout” value [1] was 0.26 g/100 plantlings and the “Mass, dry, sprout, + % to control” value [1] was 24%. For the same compound, the “Mass, wet, root” value [1] was 1.31 g/100 plantlings, the “Mass, wet, root, + % to control” value [1] was 34% and the “Mass, wet, sprout” value [1] was 2.22 g/100 plantlings. The “Mass, wet, sprout, + % to control” value [1] was 47%, the “Length, root” value [2] was 5.4 cm and the “Length, root, + % to control” value [2] was 4%. For the same compound, the “Length, sprout” value [2] was 2.3 cm, the “Length, sprout, + % to control” value [2] was 9.5% and the “Mass, dry, root” value [2] was 0.21 g/100 plantlings. For the same compound, the “Mass, dry, root, + % to control” value [2] was 5%, the “Mass, dry, sprout” value [2] was 0.28 g/100 plantlings and the “Mass, dry, sprout, + % to control” value [2] was 8%. For the same compound, the “Mass, wet, root” value [2] was 1.06 g/100 plantlings, the “Mass, wet, root, + % to control” value [2] was 16.5% and the “Mass, wet, sprout” value [2] was 1.73 g/100 plantlings. For the same compound, the “Mass, wet, sprout, + % to control” value [2] was 5.5%, the “Length, root” value [3] was 5.6 cm and the “Length, root, + % to control” value [3] was 8%. The “Length, sprout” value [3] was 2.4 cm, the “Length, sprout, + % to control” value [3] was 14% and the “Mass, dry, root” value [3] was 0.22 g/100 plantlings. For the same compound, the “Mass, dry, root, + % to control” value [3] was 10%, the “Mass, dry, sprout” value [3] was 0.30 g/100 plantlings and the “Mass, dry, sprout, + % to control” value [3] was 15%. For the same compound, the “Mass, wet, root” value [3] was 1.10 g/100 plantlings, the “Mass, wet, root, + % to control” value [3] was 21% and the “Mass, wet, sprout” value [3] was 1.81 g/100 plantlings. For the same compound, the “Mass, wet, sprout, + % to control” value [3] was 10%, the “Length, root” value [4] was 5.8 cm and the “Length, root, + % to control” value [4] was 11.5%. For the same compound, the “Length, sprout” value [4] was 2.6 cm, the “Length, sprout, + % to control” value [4] was 24% and the “Mass, dry, root” value [4] was 0.23 g/100 plantlings. The “Mass, dry, root, + % to control” value [4] was 15%, the “Mass, dry, sprout” value [4] was 0.31 g/100 plantlings and the “Mass, dry, sprout, + % to control” value [4] was 19%. The “Mass, wet, root” value [4] was 1.14 g/100 plantlings, the “Mass, wet, root, + % to control” value [4] was 25% and the “Mass, wet, sprout” value [4] was 1.89 g/100 plantlings. For the same compound, the “Mass, wet, sprout, + % to control” value [4] was 15%, the “Length, root” value [5] was 6.0 cm and the “Length, root, + % to control” value [5] was 15%. For the same compound, the “Length, sprout” value [5] was 2.8 cm, the “Length, sprout, + % to control” value [5] was 33% and the “Mass, dry, root” value [5] was 0.25 g/100 plantlings. The “Mass, dry, root, + % to control” value [5] was 25%, the “Mass, dry, sprout” value [5] was 0.33 g/100 plantlings and the “Mass, dry, sprout, + % to control” value [5] was 27%. The “Mass, wet, root” value [5] was 1.17 g/100 plantlings, the “Mass, wet, root, + % to control” value [5] was 28.5% and the “Mass, wet, sprout” value [5] was 2.00 g/100 plantlings. The “Mass, wet, sprout, + % to control” value [5] was 22%, the “Length, root” value [6] was 6.3 cm and the “Length, root, + % to control” value [6] was 21%. The “Length, sprout” value [6] was 3.5 cm, the “Length, sprout, + % to control” value [6] was 58% and the “Mass, dry, root” value [6] was 0.27 g/100 plantlings. The “Mass, dry, root, + % to control” value [6] was 35%, the “Mass, dry, sprout” value [6] was 0.35 g/100 plantlings and the “Mass, dry, sprout, + % to control” value [6] was 35%. For the same compound, the “Mass, wet, root” value [6] was 1.26 g/100 plantlings, the “Mass, wet, root, + % to control” value [6] was 38% and the “Mass, wet, sprout” value [6] was 2.18 g/100 plantlings. The “Mass, wet, sprout, + % to control” value [6] was 33%, the “Length, root” value [7] was 6.4 cm and the “Length, root, + % to control” value [7] was 23%. The “Length, sprout” value [7] was 4.0 cm, the “Length, sprout, + % to control” value [7] was 90% and the “Mass, dry, root” value [7] was 0.30 g/100 plantlings. The “Mass, dry, root, + % to control” value [7] was 50%, the “Mass, dry, sprout” value [7] was 0.39 g/100 plantlings and the “Mass, dry, sprout, + % to control” value [7] was 50%. The “Mass, wet, root” value [7] was 1.35 g/100 plantlings, the “Mass, wet, root, + % to control” value [7] was 48% and the “Mass, wet, sprout” value [7] was 2.30 g/100 plantlings. For the same compound, the “Mass, wet, sprout, + % to control” value [7] was 40%, the “Length, root” value [8] was 6.2 cm and the “Length, root, + % to control” value [8] was 19%. The “Length, sprout” value [8] was 3.6 cm, the “Length, sprout, + % to control” value [8] was 71% and the “Mass, dry, root” value [8] was 0.26 g/100 plantlings. For the same compound, the “Mass, dry, root, + % to control” value [8] was 30%, the “Mass, dry, sprout” value [8] was 0.33 g/100 plantlings and the “Mass, dry, sprout, + % to control” value [8] was 27%. The “Mass, wet, root” value [8] was 1.18 g/100 plantlings, the “Mass, wet, root, + % to control” value [8] was 30% and the “Mass, wet, sprout” value [8] was 2.23 g/100 plantlings. For the same compound, the “Mass, wet, sprout, + % to control” value [8] was 36%, the “dry mass of the roots increased by” value [9] was 50% and the “dry mass of the sprouts increased by” value [9] was 50%. For the same compound, the “length of the root increased by” value [9] was 23%, the “length of the sprout increased by” value [9] was 90% and the “wet mass of the roots increased by” value [9] was 48%. For the same compound, the “wet mass of the sprouts increased by” value [9] was 40%.
